From paper PMC12947280, “An Antifungal with a Novel Mechanism of Action Discovered via Resistance Gene-Guided Genome Mining” (ACS Central Science, 2026) come the findings set out here.

The target in one series is T1, S. cerevisiae ALS (Saccharomyces cerevisiae, UniProt P07342).
T1 construct: made in house; host or cells: E. coli BL21 (DE3), pET28a-ScILV2
The series is described as follows: Kinetic characterization: IC50 vs concentration of active ALS. The class given is biochemical. The settings on record: IC50 equal to half the concentration of active ALS.

The next series can be described thus: Plasma stability, mouse. The format is in vitro ADME. The settings on record: read-out: Plasma t1/2 Mouse.
The next series deals with A. fumigatus ALS (Aspergillus fumigatus, UniProt Q4WXQ3). Kind of series: ALS biochemical assay (AfALS). The protocol: ALS biochemical assay (AfALS)
Aspergillus fumigatus acetohydroxyacid synthase (AfILV2) lacking the N-terminal mitochondrial-targeting sequence (amino acids 112-752) was overproduced and isolated from E. coli as an N-terminally His6-tagged protein. Assays (50 µL final volume) contained 200 nM His6-AfALS, 8 mM pyruvate, 1 mM thiamine pyrophosphate, and 10 µM flavin adenine dinucleotide, 10 mM MgCl2, 1 mM DTT, 1% DMSO (± inhibitor) in 200 mM KH2PO4 buffer at pH
7.5. Following a 30 min pre-incubation of the enzyme and inhibitor in the reaction mixture at room temperature, reactions were initiated with the addition of pyruvate. AfALS assays were carried out at 30 °C for 120 min. The reaction was quenched with the addition of 5 µL of 10% H2SO4 (v/v in deionized water). Reactions were incubated at 60 °C at incubating microplate shaker for 15 min to convert the product of the ALS reaction, acetolactate, to acetoin.
Subsequently, the concentration of acetoin was determined by the addition of 7.5 µL 6 M NaOH, 25 µL 0.5% creatine (w/v in deionized water), and 25 µL 4% 1-naphthol (w/v in 2.5 M NaOH).
This mixture was incubated at 60 °C in an incubating microplate shaker for 15 min. 40 µL of this reaction mixture was transferred to a half area UV-star 96-well plate (Grenier) and the absorbance at 525 nm was measured on a Spark multimode plate reader (Tecan). The percent inhibition was calculated by the comparison of the signal to DMSO (0% inhibition) and no enzyme (100% inhibition) controls. IC50 values were calculated from the dose response curves using Prism 9 (four parameter, variable slope). […]
(amino acids 58-687) was codon optimized for expression in E. coli and synthesized by […]

Series [1] has as its system Fusarium oxysporum ATCC 48112. The series is described as follows: Antifungal screening, broth microdilution MIC. The settings on record: for MIC: ATCC48112, Fusarium oxysporum ATCC 48112. The format is cell-based. The protocol: Antifungal screening of 1
Antifungal screening was performed by Micromyx, LLC (Kalamazoo, Michigan, USA). Test organisms were either reference strains from the American Type Culture Collection (ATCC; Manassas, VA), the Centers for Disease Control and Prevention (CDC; Atlanta, GA), or clinical isolates from the Micromyx (MMX) collection. Upon receipt at Micromyx, the isolates were streaked under suitable conditions onto agar medium appropriate to each organism. The yeast isolates were incubated for 24 hr at 35 °C and the fungi were incubated for 7 to 13 days at 35 °C, as appropriate. Colonies harvested from these growth plates were resuspended in the appropriate medium containing a cryoprotectant. Aliquots of each suspension were then frozen […]
Prior to testing, the yeast isolates were streaked from frozen vials onto Sabouraud Dextrose Agar (SAB; Becton Dickenson [BD]/BBL; Sparks, MD, Lot No. 2228660) and were incubated at 35°C for 24 hr. Additional fungal isolates were streaked from frozen vials onto potato dextrose agar (BD/BBL; Sparks, MD, Lot No. 2046481) and incubated under optimal conditions for […]
All MIC measurements were performed in RPMI1640 from Hyclone Laboratories (Logan, UT;
Cat. No. SH3001104; Lot No. AC10257966A) buffered with MOPS to pH-7 from Millipore […]
MIC values were determined using a broth microdilution procedure described by CLSI. 5,6.
Automated liquid handlers (Multidrop 384, Labsystems, Helsinki, Finland; Biomek 3000 and […]
Biomek FX, Beckman Coulter Fullerton CA) were used to conduct serial dilutions and liquid […]
Solutions of 1 were added in an 11 point 2x serial dilution in DMSO with a maximum tested concentration of 32 μg/ml in the culture medium. Drug solution was added at 1% v/v into 200 μl […]
A standardized inoculum of each test organism was prepared in appropriate media per CLSI methods.5,6 The plates were then inoculated with 10 µL of the diluted inoculum using the Biomek 3000 from low to high drug concentration, resulting in a final concentration of approximately 0.5 to 2.5 x 10^3 CFU/mL for yeast and 0.2 to 2.5 x 10^4 CFU/mL for the other fungi. An un-inoculated plate was incubated for the purpose of assessing solubility of the drug […]
The plates were stacked 3 to 4 high, covered with a sterile lid on the top plate, and incubated aerobically at 35 °C for 24, 48, and 72 h. For yeast, both the MIC based on complete inhibition and 50% inhibition were reported at 24 and 48 h. For other fungal isolates, the MIC values were recorded at 24 and 48 hr and were based on complete inhibition and 50% inhibition.
Intact protein LCMS analysis
10 μM of recombinant S. cerevisiae ALS was incubated with 10 μM compound 1 in buffer (50 mM Tris pH 7.5, 100 mM KCl, 10 uM FAD, 1 mM TPP, 10 mM MgCl2 (with 2.5% DMSO from compound)) at 22 °C for 30 min. Unreacted 1 was removed by passing the reaction mixture through a 30 kDa MWCO filter (Millipore). The collected protein was then denatured and reduced by incubation with 6 M urea and 10 mM DTT at 37 °C for 1 h followed by 20 mM iodoacetamide alkylation for 30 min in dark. This reaction mixture then underwent buffer exchange into 100 mM Tris-HCl pH 8.0 and 10 mM CaCl2 buffer using a 30 kDa MWCO filter.
The protein was then incubated with sequencing grade chymotrypsin (Promega) (15:1,w/w) for […]
After digestion, the peptide mixture was immediately analysed by LC-MS/MS using a Waters I-class UPLC equipped with an ACQUITY UPLC BEH C18 column (2.1x50 mm, 1.7 µm, Waters) at 50 °C coupled to a Waters Synapt G2Si MS. The sample was injected and subjected to an LC gradient starting from 0.5% mobile phase B (ACN with 0.1% formic acid) for 5 min with linear increase to 40% B over 35 min. Mobile phase A was 0.1% formic acid water. Flow rate was maintained at 0.3 ml/min. MS/MS data was acquired in positive ionization mode with data dependent MS/MS acquisition. Peptide mapping was performed with PEAKs Studio 8.0 (Bioinformatics Solutions Inc.) followed by manual review to identify peptides putatively modified by covalent addition of 1. […]
In general terms: Dilution methods test growth across graded concentrations, often in twofold steps.

Molecules are shown by their SMILES. Read-outs that look alike come from different tables or passages of the source.

T1 sequence (P07342 58-687): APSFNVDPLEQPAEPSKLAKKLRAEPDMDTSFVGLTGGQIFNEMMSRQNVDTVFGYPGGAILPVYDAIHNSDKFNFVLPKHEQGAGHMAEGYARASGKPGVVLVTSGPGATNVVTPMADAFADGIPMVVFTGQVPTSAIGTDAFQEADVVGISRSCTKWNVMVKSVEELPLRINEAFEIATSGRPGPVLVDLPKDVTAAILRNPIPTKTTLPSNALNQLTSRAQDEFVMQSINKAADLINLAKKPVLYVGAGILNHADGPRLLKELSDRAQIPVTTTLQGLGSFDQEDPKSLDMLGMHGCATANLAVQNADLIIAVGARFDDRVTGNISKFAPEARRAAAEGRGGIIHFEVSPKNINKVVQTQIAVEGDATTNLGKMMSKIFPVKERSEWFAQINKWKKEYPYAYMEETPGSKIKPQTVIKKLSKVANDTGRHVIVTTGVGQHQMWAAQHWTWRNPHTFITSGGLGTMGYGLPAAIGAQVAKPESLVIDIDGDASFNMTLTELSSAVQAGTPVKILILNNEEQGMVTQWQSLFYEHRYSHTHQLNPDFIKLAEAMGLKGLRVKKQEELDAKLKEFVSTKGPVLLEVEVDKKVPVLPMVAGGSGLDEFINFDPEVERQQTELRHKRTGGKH
Sequence of A. fumigatus ALS (Q4WXQ3 entry or part of it): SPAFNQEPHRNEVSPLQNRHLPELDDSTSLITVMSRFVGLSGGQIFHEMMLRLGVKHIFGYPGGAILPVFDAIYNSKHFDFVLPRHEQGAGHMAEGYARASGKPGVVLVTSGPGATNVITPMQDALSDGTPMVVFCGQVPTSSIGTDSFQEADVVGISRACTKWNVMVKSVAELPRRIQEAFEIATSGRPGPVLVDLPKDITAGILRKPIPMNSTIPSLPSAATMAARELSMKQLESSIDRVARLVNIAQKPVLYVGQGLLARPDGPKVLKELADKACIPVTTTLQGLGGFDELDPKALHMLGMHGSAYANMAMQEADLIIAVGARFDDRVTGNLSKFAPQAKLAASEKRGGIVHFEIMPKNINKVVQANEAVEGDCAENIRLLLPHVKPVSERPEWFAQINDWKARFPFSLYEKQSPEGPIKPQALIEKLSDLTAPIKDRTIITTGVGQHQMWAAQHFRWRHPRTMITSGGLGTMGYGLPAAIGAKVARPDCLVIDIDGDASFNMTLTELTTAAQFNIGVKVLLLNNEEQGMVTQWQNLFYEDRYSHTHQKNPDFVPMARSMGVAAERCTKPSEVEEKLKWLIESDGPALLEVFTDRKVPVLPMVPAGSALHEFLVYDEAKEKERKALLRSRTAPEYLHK

Regarding `CCCC1C(C)=CC2CC=CC3(C)C2C1C(=O)C31C(=O)NC(CCCO)C1=O` (centres unmarked) [compound 1], at S. cerevisiae ALS, the “binding kinetics (IC50 vs concentration of active ALS)” value is “tight-binding kinetics”. Moreover, in “Plasma stability, mouse”, the half-life was 1.47 h. Besides, half-maximal inhibition on A. fumigatus ALS (IC50) required 49 ± 8 nM. The MIC in series [1] (24 hr, read-out: MIC 100% growth inhibition) is > 32 µg/mL; in series [1] (24 hr, read-out: MIC >50% growth inhibition), > 32 µg/mL; in series [1] (48 hr, read-out: MIC 100% growth inhibition), > 32 µg/mL; in series [1] (48 hr, read-out: MIC >50% growth inhibition), > 32 µg/mL. In addition, the “MIC (Table S5)” value in series [1] (Fusarium oxysporum, species summary) is on record as > 32.

The term IC50 denotes the concentration needed to halve the response being measured. The term MIC denotes the least concentration at which growth counts as inhibited.
